Laboratory results from ChEMBL document CHEMBL6153042, “Glycoconjugates of adefovir and tenofovir as asialoglycoprotein-mediated Anti-HBV prodrugs with enhanced liver targeting” (Eur J Med Chem, 2025).

Columns and labels:
[1] = system: LX-2; assay: Cytotoxicity against human LX2 cells at 5 uM incubated for 48 hrs by CCK8 assay; format: toxicity, cell-based; conditions: lx-2, 48 h
[2] = (§1) Cytotoxicity against human LX2 cells assessed as cell growth inhibition at 10 uM incubated for 48 hrs by CCK8 assay relative to control; format: toxicity, cell-based, LX-2; conditions: LX2 cells, read-out: GI
[3] = Cytotoxicity against human HepG2.2.15 cells assessed as inhibition of cell proliferation by CCK8 assay; format: toxicity, cell-based, HepG2 2.2.15
[4] = system: Hepatitis B virus; assay: Antiviral activity against Hepatitis B virus infected in human HepG2.2.15 cells assessed as inhibition of HBV DNA replication incubated for 10 day by qPCR analysis; format: functional, organism-based; conditions: HepG2.2.15, 240 h
[5] = Selectivity index, the ratio of CC50 for human HepG2.2.15 cells to EC50 for antiviral activity against HBV in human HepG2.2.15 cells assessed as inhibition of HBV DNA replication; format: toxicity, cell-based; conditions: read-out: Ratio CC50/EC50
[6] = Drug uptake in Sprague-Dawley rat kidney at 10 mg/kg, iv measured after 1 to 6 hrs by LC-MS/MS analysis; format: ADME, organism-based; conditions: in vivo, time 1-6 hrs
[7] = Toxicity in Kunming mouse assessed as histopathological changes in liver at 200 mg/kg, iv once daily for 5 days by H and E staining based analysis; format: organism-based; conditions: in vivo, 120 h, time 5 day
[8] = Toxicity in Kunming mouse assessed as effect on body weight at 100 to 200 mg/kg, iv administered once daily for 5 days; format: organism-based; conditions: in vivo, 120 h, dose 100-200 mg/kg, time 5 day
[9] = Toxicity in Kunming mouse assessed as maximum tolerated dose administered intravenously as once daily dose for 5 days; conditions: in vivo, route iv, time 5 day
[10] = system: LX-2; assay: as §1; format: toxicity, cell-based; conditions: lx-2, 48 h, 10 µM
[11] = Toxicity in Kunming mouse assessed as histopathological changes in heart at 200 mg/kg, iv once daily for 5 days by H and E staining based analysis; format: organism-based; conditions: in vivo, 120 h, time 5 day
[12] = Toxicity in Kunming mouse assessed as histopathological changes in kidney at 200 mg/kg, iv once daily for 5 days by H and E staining based analysis; format: organism-based; conditions: in vivo, 120 h, time 5 day
[13] = Metabolic stability in rat liver microsomes assessed as half-life measured upto 60 mins by LC-MS/MS analysis; format: ADME, Microsome
[14] = Metabolic stability in human liver microsomes assessed as half-life measured upto 60 mins by LC-MS/MS analysis; format: ADME, Microsome
[15] = AUC (0 to t) in Sprague-Dawley rat at 50 mg/kg, po by LC-MS analysis; format: ADME, organism-based; conditions: in vivo
[16] = AUC (0 to t) in Sprague-Dawley rat at 5 mg/kg, iv by LC-MS analysis; format: ADME, organism-based; conditions: in vivo
[17] = AUC (0 to infinity) in Sprague-Dawley rat at 5 mg/kg, iv by LC-MS analysis; format: ADME, organism-based; conditions: in vivo
[18] = AUC (0 to infinity) in Sprague-Dawley rat at 50 mg/kg, po by LC-MS analysis; format: ADME, organism-based; conditions: in vivo
[19] = Half-life in Sprague-Dawley rat at 50 mg/kg, po by LC-MS analysis; format: ADME, organism-based; conditions: in vivo
[20] = Half-life in Sprague-Dawley rat at 5 mg/kg, iv by LC-MS analysis; format: ADME, organism-based; conditions: in vivo
[21] = Tmax in Sprague-Dawley rat at 5 mg/kg, iv by LC-MS analysis; format: ADME, organism-based; conditions: in vivo
[22] = Tmax in Sprague-Dawley rat at 50 mg/kg, po by LC-MS analysis; format: ADME, organism-based; conditions: in vivo
[23] = Cmax in Sprague-Dawley rat at 50 mg/kg, po by LC-MS analysis; format: ADME, organism-based; conditions: in vivo
[24] = Cmax in Sprague-Dawley rat at 5 mg/kg, iv by LC-MS analysis; format: ADME, organism-based; conditions: in vivo
[25] = Clearance in Sprague-Dawley rat at 5 mg/kg, iv by LC-MS analysis; format: ADME, organism-based; conditions: in vivo
[26] = Clearance in Sprague-Dawley rat at 50 mg/kg, po by LC-MS analysis; format: ADME, organism-based; conditions: in vivo
[27] = Oral bioavailability in Sprague-Dawley rat at 50 mg/kg by LC-MS analysis; format: ADME, organism-based; conditions: in vivo
[28] = Toxicity in Kunming mouse assessed as effect on heart colour at 100 to 200 mg/kg, iv once daily for 5 days; format: organism-based; conditions: in vivo, 120 h, dose 100-200 mg/kg, time 5 day
[29] = Toxicity in Kunming mouse assessed as effect on liver colour at 100 to 200 mg/kg, iv once daily for 5 days; format: organism-based; conditions: in vivo, 120 h, dose 100-200 mg/kg, time 5 day
[30] = Toxicity in Kunming mouse assessed as effect on kidney colour at 100 to 200 mg/kg, iv once daily for 5 days; format: organism-based; conditions: in vivo, 120 h, dose 100-200 mg/kg, time 5 day
[31] = Toxicity in Kunming mouse assessed as effect on heart size at 100 to 200 mg/kg, iv once daily for 5 days; format: organism-based; conditions: in vivo, 120 h, dose 100-200 mg/kg, time 5 day
[32] = Toxicity in Kunming mouse assessed as effect on liver size at 100 to 200 mg/kg, iv once daily for 5 days; format: organism-based; conditions: in vivo, 120 h, dose 100-200 mg/kg, time 5 day
[33] = Toxicity in Kunming mouse assessed as effect on kidney size at 100 to 200 mg/kg, iv once daily for 5 days; format: organism-based; conditions: in vivo, 120 h, dose 100-200 mg/kg, time 5 day
[34] = Toxicity in Kunming mouse assessed as effect on heart weight at 100 to 200 mg/kg, iv once daily for 5 days; format: organism-based; conditions: in vivo, 120 h, dose 100-200 mg/kg, time 5 day
[35] = Toxicity in Kunming mouse assessed as effect on liver weight at 100 to 200 mg/kg, iv once daily for 5 days; format: organism-based; conditions: in vivo, 120 h, dose 100-200 mg/kg, time 5 day
[36] = Toxicity in Kunming mouse assessed as effect on kidney weight at 100 to 200 mg/kg, iv once daily for 5 days; format: organism-based; conditions: in vivo, 120 h, dose 100-200 mg/kg, time 5 day
[37] = Drug uptake in Sprague-Dawley rat at 50 mg/kg, po or 5 mg/kg, iv measured after 2 to 3 hrs by LC-MS/MS analysis; format: ADME, organism-based; conditions: in vivo, time 2-3 hrs
[38] = Drug metabolism in plasma of Sprague-Dawley rat assessed as hydrolyzed metabolite formation measured after 5 hrs by HPLC analysis; format: ADME, cell-free
[39] = Prodrug release in human HepG2 cells assessed as adefovir release measured over 1 hrs by HPLC analysis; format: ADME, cell-based; conditions: hepg2, 1 h
[40] = Prodrug release in human HepG2 cells assessed as tenofovir release measured over 1 hrs by HPLC analysis; format: ADME, cell-based; conditions: hepg2, 1 h
[41] = Prodrug release in human HepG2 cells assessed as adefovir release by mass spectrometric analysis; format: ADME, cell-based
[42] = Prodrug release in human HepG2 cells assessed as tenofovir release by mass spectrometric analysis; format: ADME, cell-based

Compound | Activity [1] | inhibition at 48 h, 10 µM [2] | CC50 [3] | EC50 [4] | selectivity ratio [5] | Drug uptake [6] | Activity [7] | Activity [8] | MTD at 120 h [9] | Activity [10] | Activity [11] | Activity [12] | half-life [13] | half-life [14] | AUC(0-t) [15] | AUC(0-t) [16] | AUC(0-inf) [17] | AUC(0-inf) [18] | half-life [19] | half-life [20] | also measured
CC(C)(C)C(=O)OCOP(=O)(COCCn1cnc2c(N)ncnc21)OCOC(=O)C(C)(C)C [ADEFOVIR DIPIVOXIL] | Non-toxic | ~30% | 10.7 µM | 0.24 µM | 44.6 | Active |  |  |  |  |  |  |  |  |  |  |  |  |  |  | 
CC(=O)N[C@H]1[C@H](OCCCCC(=O)NCCOCCOCCOCCOCCn2cc(COP(=O)(COCCn3cnc4c(N)ncnc43)OCOC(=O)C(C)(C)C)nn2)O[C@H](CO)[C@H](O)[C@H]1O (some centres not stated) | Toxic |  | > 100 µM | 0.26 µM | > 384 |  | Non-toxic | Non-toxic | ~200 mg/kg | Toxic | Non-toxic | Non-toxic | 2.33 min | 14.9 min | 3300 ng·h/mL | 1990 ng·h/mL | 2000 ng·h/mL | 3310 ng·h/mL | 191 min | 46.8 min | Tmax [21]: 1.98 min; Tmax [22]: 40.2 min; Cmax [23]: 1290 ng/mL; Cmax [24]: 2010 ng/mL; clearance [25]: 42.1 mL/min/kg; CL/F [26]: 252 mL/min/kg; bioavailability [27]: 16.6%; Activity [28]: Non-toxic; Activity [29]: Non-toxic; Activity [30]: Non-toxic; Activity [31]: Non-toxic; Activity [32]: Non-toxic; Activity [33]: Non-toxic; Activity [34]: Non-toxic; Activity [35]: Non-toxic; Activity [36]: Non-toxic; Drug uptake [37]: Not_active
CC(=O)N[C@H]1[C@H](OCCCCC(=O)NCCOCCOCCOCCOCCn2cc(COP(=O)(CO[C@H](C)Cn3cnc4c(N)ncnc43)OCOC(=O)C(C)(C)C)nn2)O[C@H](CO)[C@H](O)[C@H]1O (some centres not stated) | Toxic |  | > 100 µM | 0.214 µM | > 468 |  | Non-toxic | Non-toxic | ~200 mg/kg | Toxic | Non-toxic | Non-toxic | 2.13 min | 12.4 min | 4900 ng·h/mL | 2100 ng·h/mL | 2130 ng·h/mL | 4930 ng·h/mL | 192 min | 67.2 min | Tmax [21]: 1.98 min; Tmax [22]: 45 min; Cmax [23]: 1500 ng/mL; Cmax [24]: 2030 ng/mL; clearance [25]: 40.7 mL/min/kg; CL/F [26]: 172 mL/min/kg; bioavailability [27]: 23.4%; Activity [28]: Non-toxic; Activity [29]: Non-toxic; Activity [30]: Non-toxic; Activity [31]: Non-toxic; Activity [32]: Non-toxic; Activity [33]: Non-toxic; Activity [34]: Non-toxic; Activity [35]: Non-toxic; Activity [36]: Non-toxic; Drug uptake [37]: Not_active
CC(=O)N[C@H]1[C@H](OCCCCC(=O)NCCCNC(=O)CCOCC(COCCC(=O)NCCCNC(=O)CCCCO[C@@H]2O[C@H](CO)[C@H](O)[C@@H](O)[C@H]2NC(C)=O)(COCCC(=O)NCCCNC(=O)CCCCO[C@@H]2O[C@H](CO)[C@H](O)[C@@H](O)[C@H]2NC(C)=O)NC(=O)CCC(=O)NCCOCCOCCOCCOCCn2cc(COP(=O)(O)COCCn3cnc4c(N)ncnc43)nn2)O[C@H](CO)[C@H](O)[C@H]1O |  |  |  |  |  |  |  |  |  |  |  |  |  |  |  |  |  |  |  |  | Drug metabolism [38]: metabolite_notdetected; Drug metabolism [39]: metabolite_detected; Drug metabolism [40]: metabolite_detected; Drug metabolism [41]: metabolite_detected; Drug metabolism [42]: metabolite_detected
CC(C)OC(=O)OCOP(=O)(CO[C@H](C)Cn1cnc2c(N)ncnc21)OCOC(=O)OC(C)C.O=C(O)/C=C/C(=O)O [TENOFOVIR DISOPROXIL FUMARATE] | Non-toxic | ~30% | 8.2 µM | 0.188 µM | 43.7 | Active |  |  |  |  |  |  |  |  |  |  |  |  |  |  | 
CC(=O)N[C@H]1[C@H](OCCCCC(=O)NCCCNC(=O)CCOCC(COCCC(=O)NCCCNC(=O)CCCCO[C@@H]2O[C@H](CO)[C@H](O)[C@@H](O)[C@H]2NC(C)=O)(COCCC(=O)NCCCNC(=O)CCCCO[C@@H]2O[C@H](CO)[C@H](O)[C@@H](O)[C@H]2NC(C)=O)NC(=O)CCC(=O)NCCOCCOCCOCCOCCn2cc(COP(=O)(O)CO[C@H](C)Cn3cnc4c(N)ncnc43)nn2)O[C@H](CO)[C@H](O)[C@H]1O (racemic) |  |  |  |  |  |  |  |  |  |  |  |  |  |  |  |  |  |  |  |  | Drug metabolism [38]: metabolite_notdetected; Drug metabolism [39]: metabolite_detected; Drug metabolism [40]: metabolite_detected; Drug metabolism [41]: metabolite_detected; Drug metabolism [42]: metabolite_detected
